Measured values reported in patent US20140154666A1, “Erythrocyte Preservation Method” (Trustees of Dartmouth College, priority 2012, published 2014).

Assays:
erythrocyte concentrate [1] = conditions: presence of DEHP plasticizer in the storage container; cited from earlier work
erythrocyte concentrate [2] = assay: Hemolysis of erythrocyte concentrate after 42 days of refrigerated storage; type: cell-based; conditions: FIG. 1
Description: (§1) Referring now to FIGS. 1-2, test results of two different erythrocyte concentrates are illustrated. The first erythrocyte concentrate is identified by, number 2032 and the second erythrocyte concentrate is identified by number 2086. Each of the samples was divided into four different containers. […] Also, for each sample, two of the containers included a gas system of 99.9% by volume xenon gas. The graphs indicate which container included or were absent xenon gas and/or DEHP plasticiser. The testing protocol for the containers was as follows:
(§2) For Containers That Are Absent Xe Gas:
(§3) a. Place non-Xe units flat on a rotator for 3.5 hours.
(§4) b. Place non-Xe units in blood bank refrigerator at the same time as the Xe units.
(§5) For Containers That Include Xe Gas:
(§6) a. Place Xe units flat in a pretested hyperatmic chamber.
(§7) b. Evacuate the chamber with vacuum to remove oxygen from the Xe units.
(§8) c. Pressurize the chamber with Xe gas at 4 atm.
(§9) d. Vent the chamber of Xe gas.
(§10) e. Pressurize the chamber with Xe gas at 4 atm.
(§11) f Vent the chamber of Xe gas.
(§12) g. Pressurize the chamber with Xe gas at 4 atm.
(§13) h. Vent the chamber of Xe gas.
(§14) i. Pressurize the chamber with Xe gas at 4 atm.
(§15) j. Place the pressurized Xe unit on an agitator for 3.5 h.
k. Place the pressurized Xe unit in a blood bank refrigerator at the same time as the non-Xe units.
While the Xe units and non-Xe units are in the blood bank refrigerator, the Xe units were periodically checked over a 42 day period to ensure that the pressure in the Xe units exceeded 1 atm. After 42 days, all of the units were removed from the blood bank refrigerator. After the units were removed from the blood bank refrigerator, the following procedures where conducted on the units:
1. Immediately place the pressurized Xe units and non-Xe units on a platelet to and-fro horizontal agitator for 10 minutes.
2. Depressurize all of the units by opening a value on the container.
3. Place all units on a bench top and hold for 3 hours.
4. Following the 3 hour hold period, test the samples for percentage of hemolysis and the ATP content.

erythrocyte concentrate [3] = assay: ATP content of erythrocyte concentrate after 42 days of refrigerated storage; type: cell-based; conditions: FIG. 2, samples 2032 and 2086, 99.9% by volume xenon gas, treated vs not treated
Description: as §1, §2, §3, §4, §5, §6, §7, §8, §9, §10, §11, §12, §13, §14, §15
k. Place the pressurized Xe unit in a blood bank refrigerator at the same time as the non-Xe units. […]

Structure (SMILES)	number of erythrocytes that lysed during the storage of the erythrocyte concentrate (erythrocyte concentrate [1])	hemolysis (erythrocyte concentrate [2]; 42 days, DEHP plasticiser added to a container that included xenon gas)	amounts of hemolysis (erythrocyte concentrate [2]; 42 days, containers that include DEHP plasticiser vs containers without)	amounts of hemolysis (erythrocyte concentrate [2]; 42 days, xenon gas with no DEHP plasticiser vs container with DEHP plasticiser and no xenon gas)	percent of hemolysis (erythrocyte concentrate [2]; samples 2032 and 2086, 99.9% by volume xenon gas at 4 atm, 42 days in blood bank refrigerator, treated vs not treated with xenon gas)	ATP content in the erythrocyte concentrate (erythrocyte concentrate [3])
CCCCC(CC)COC(=O)c1ccccc1C(=O)OCC(CC)CCCC (stereo not drawn) [DEHP plasticiser, his (2-ethylhexyl) phthalate]	reduces the number of erythrocytes that lysed	further reduction of hemolysis	Reduced amounts of hemolysis			
[Xe] [xenon gas, Xenon]				lower amounts of hemolysis	significantly less	higher ATP content
